Measured values published in BigSolDB 2.1.

O=C(O)c1cccnc1
solubility (mole fraction) (in DMSO, 283.15 K): 0.0437 | solubility (mole fraction) (in DMSO, 293.15 K): 0.0576 | solubility (mole fraction) (in DMSO, 303.15 K): 0.0722 | solubility (mole fraction) (in DMSO, 313.15 K): 0.0889 | solubility (mole fraction) (in DMSO, 323.15 K): 0.107 | solubility (mole fraction) (in DMSO, 333.15 K): 0.127 | solubility (mole fraction) (in DMSO, 343.15 K): 0.15 | solubility (mole fraction) (in acetone, 283.15 K): 0.00062 | solubility (mole fraction) (in acetone, 293.15 K): 0.00104 | solubility (mole fraction) (in acetone, 303.15 K): 0.00166 | solubility (mole fraction) (in acetone, 313.15 K): 0.00262 | solubility (mole fraction) (in acetone, 323.15 K): 0.00408 | solubility (mole fraction) (in ethanol, 283.15 K): 0.00202 | solubility (mole fraction) (in ethanol, 293.15 K): 0.00312 | solubility (mole fraction) (in ethanol, 303.15 K): 0.00468 | solubility (mole fraction) (in ethanol, 313.15 K): 0.00683 | solubility (mole fraction) (in ethanol, 323.15 K): 0.00978 | solubility (mole fraction) (in ethanol, 333.15 K): 0.0136 | solubility (mole fraction) (in ethanol, 343.15 K): 0.0188 | solubility (mole fraction) (in ethyl acetate, 283.15 K): 0.00033 | solubility (mole fraction) (in ethyl acetate, 293.15 K): 0.00054 | solubility (mole fraction) (in ethyl acetate, 303.15 K): 0.00093 | solubility (mole fraction) (in ethyl acetate, 313.15 K): 0.00149 | solubility (mole fraction) (in ethyl acetate, 323.15 K): 0.00246 | solubility (mole fraction) (in ethyl acetate, 333.15 K): 0.00401 | solubility (mole fraction) (in ethyl acetate, 343.15 K): 0.00603 | solubility (mole fraction) (in isopropanol, 283.15 K): 0.00177 | solubility (mole fraction) (in isopropanol, 293.15 K): 0.00276 | solubility (mole fraction) (in isopropanol, 303.15 K): 0.00418 | solubility (mole fraction) (in isopropanol, 313.15 K): 0.00617 | solubility (mole fraction) (in isopropanol, 323.15 K): 0.00891 | solubility (mole fraction) (in isopropanol, 333.15 K): 0.0125 | solubility (mole fraction) (in isopropanol, 343.15 K): 0.0172 | solubility (mole fraction) (in methanol, 283.15 K): 0.00238 | solubility (mole fraction) (in methanol, 293.15 K): 0.00382 | solubility (mole fraction) (in methanol, 303.15 K): 0.00587 | solubility (mole fraction) (in methanol, 313.15 K): 0.00889 | solubility (mole fraction) (in methanol, 323.15 K): 0.0129 | solubility (mole fraction) (in n-butanol, 283.15 K): 0.0014 | solubility (mole fraction) (in n-butanol, 293.15 K): 0.00231 | solubility (mole fraction) (in n-butanol, 303.15 K): 0.00351 | solubility (mole fraction) (in n-butanol, 313.15 K): 0.00554 | solubility (mole fraction) (in n-butanol, 323.15 K): 0.00855 | solubility (mole fraction) (in n-butanol, 333.15 K): 0.0123 | solubility (mole fraction) (in n-butanol, 343.15 K): 0.0178 | solubility (mole fraction) (in n-butanol, 353.15 K): 0.0253 | solubility (mole fraction) (in n-propanol, 283.15 K): 0.00179 | solubility (mole fraction) (in n-propanol, 293.15 K): 0.00285 | solubility (mole fraction) (in n-propanol, 303.15 K): 0.00435 | solubility (mole fraction) (in n-propanol, 313.15 K): 0.00641 | solubility (mole fraction) (in n-propanol, 323.15 K): 0.00923 | solubility (mole fraction) (in n-propanol, 333.15 K): 0.0131 | solubility (mole fraction) (in n-propanol, 343.15 K): 0.0186 | solubility (mole fraction) (in water, 283.15 K): 0.00165 | solubility (mole fraction) (in water, 293.15 K): 0.00215 | solubility (mole fraction) (in water, 303.15 K): 0.00279 | solubility (mole fraction) (in water, 313.15 K): 0.00363 | solubility (mole fraction) (in water, 323.15 K): 0.00458 | solubility (mole fraction) (in water, 333.15 K): 0.00576 | solubility (mole fraction) (in water, 343.15 K): 0.00704 | solubility (mole fraction) (in water, 353.15 K): 0.00872 | solubility (mole fraction) (in water, 363.15 K): 0.0107
